Experiment [1] deals with T1, h-cGAS (Homo sapiens, UniProt Q8N884).
T1 construct: The final concentration of full-length h-cGAS, dsDNA, ATP, and GTP were 100 nM
Briefly: cGAS biochemical assay, RapidFire 365 mass spectrometry (RF-MS). Particulars: full-length h-cGAS 100 nM, dsDNA 25 nM, ATP and GTP 100 μM, 7 h at RT.

The test system of experiment [2] is THP1-Dual cells. Briefly: Cell-based Lucia luciferase assay in THP1-Dual cells (dsDNA transfection). Particulars: Homo sapiens, 1 h pre-incubation, 100-bp dsDNA transfection for 24 h.
For experiment [3], the system named is THP1 cells. Briefly: IFNB1 mRNA expression, qRT-PCR, THP1 cells. It counts as cell-based. Particulars: Homo sapiens, read-out: THP1, qRT-PCR IC50.
In experiment [4] the test system is primary human macrophage cells. Briefly: IFNB1 mRNA expression, qRT-PCR, primary human macrophages. It is filed as cell-based. The note with it: read-out: Human Macrophage, qRT-PCR IC50. For orientation: In qPCR the cycle at which signal appears reflects the starting amount.
In experiment [5] the test system is human PBMCs. Briefly: IFNB1 mRNA expression, qRT-PCR, human PBMCs. It is filed as cell-based. The note with it: PBMC, 4 hours post-transfection of dsDNA.
The mark [6] stands for this setting: THP-1, IFNB1 mRNA, 4 hours post-transfection of dsDNA.
[7] abbreviates: IFNB1 mRNA, 4 hours post-transfection of dsDNA.
Where [8] appears, read: fresh PBMCs, read-out: Fresh human PBMCs, qRT-PCR IC50.

Read-outs that look alike come from different tables or passages of the source. Bounds are passed on as bounds.

T1 sequence (Q8N884 whole entry): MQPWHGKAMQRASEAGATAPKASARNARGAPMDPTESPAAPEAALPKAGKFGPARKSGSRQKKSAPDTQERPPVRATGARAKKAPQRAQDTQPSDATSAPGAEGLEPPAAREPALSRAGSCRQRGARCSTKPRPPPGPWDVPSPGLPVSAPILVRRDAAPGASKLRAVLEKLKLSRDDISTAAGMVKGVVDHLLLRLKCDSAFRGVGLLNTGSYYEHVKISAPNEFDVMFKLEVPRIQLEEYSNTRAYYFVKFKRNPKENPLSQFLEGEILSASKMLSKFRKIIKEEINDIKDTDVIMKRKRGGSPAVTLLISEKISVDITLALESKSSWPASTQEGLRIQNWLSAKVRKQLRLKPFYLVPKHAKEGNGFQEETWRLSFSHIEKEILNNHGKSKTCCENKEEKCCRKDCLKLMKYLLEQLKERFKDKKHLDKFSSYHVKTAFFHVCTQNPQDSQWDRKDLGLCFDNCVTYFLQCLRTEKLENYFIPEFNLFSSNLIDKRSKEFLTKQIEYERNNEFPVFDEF

As to `Cn1cc(-c2cc(Cl)c(Cl)c3[nH]c4c(c23)CN(C(=O)CO)CC4)cn1` [TDI-007635], the figures for the half-maximal inhibitory concentration (IC50) in experiment [1], in experiment [2] and in experiment [3] (setting [6]) were 42.8 nM, 8140 nM and 2140 nM, respectively.

Turning to `Nc1ccc(-c2cc(Cl)c(Cl)c3[nH]c4c(c23)CN(C(=O)CO)CC4)cn1` [TDI-008087], the IC50 – broadly, the point on the concentration scale where inhibition reaches its midpoint – in experiment [2] was determined as 1970 nM; in experiment [3] (THP-1, 4 h) it was 950 nM; in experiment [4] (4 h), 620 nM.

In the case of `Cn1ccc(-c2cc(Cl)c(Cl)c3[nH]c4c(c23)CN(C(=O)CO)CC4)n1` [TDI-008077], the IC50 was 14.6 nM in experiment [1]; 3320 nM in experiment [2]; 930 nM in experiment [3] (setting [6]); 860 nM in experiment [4] (setting [7]); 1150 nM in experiment [5] (setting [8]).

As to `O=C(CO)N1CCc2[nH]c3c(Cl)c(Cl)cc(-c4cn[nH]c4)c3c2C1` [TDI-007445, 1-(6,7-Dichloro-9-(1H-pyrazol-4-yl)-1,3,4,5-tetrahydro-2H-pyrido[4,3-b]indol-2-yl)-2-hydroxyethan-1-one], the results for the IC50 in experiment [2], in experiment [3] (setting [6]) and in experiment [4] (setting [7]) were 5260 nM, 1440 nM and 1200 nM, respectively.

In the case of `O=C(CO)N1CCc2[nH]c3c(F)c(Cl)cc(N4CCCC4=O)c3c2C1` [TDI-009072], the results for the IC50 in experiment [1] and in experiment [2] were 18600 nM and above 40000 nM, respectively.

Regarding `Cn1ncc(-c2cc(Cl)c(Cl)c3[nH]c4c(c23)CN(C(=O)CO)CC4)n1` [TDI-009007], the IC50 is 23.3 nM in experiment [1] and 1150 nM in experiment [2].

On to `O=C(CO)N1CCc2[nH]c3c(F)c(Cl)cc(-n4cccn4)c3c2C1` [TDI-009013, 1-(7-chloro-6-fluoro-9-pyrazol-1-yl-1,3,4,5-tetrahydropyrido [4,3-b]indol-2-yl)-2-hydroxy-ethanone], for which the IC50 in experiment [1] was 583 nM; in experiment [2] it was above 40000 nM.

In the case of `Cn1ccc(-c2cc(Cl)c(OCC(F)F)c3[nH]c4c(c23)CN(C(=O)CO)CC4)n1` [TDI-008796], the IC50 in experiment [1] is 984 nM; in experiment [2], above 40000 nM.

Consider `Cn1ncc(-c2cc(Cl)c(F)c3[nH]c4c(c23)CN(C(=O)CO)CC4)n1` [TDI-009186], for which the figures for the 50% inhibitory concentration (IC50) in experiment [1] and in experiment [2] were 17.6 nM and 720 nM, respectively.

In the case of `Cc1nnc(-c2cc(Cl)c(Cl)c3[nH]c4c(c23)CN(C(=O)CO)CC4)o1` [TDI-008777], the figures for the IC50 in experiment [1] and in experiment [2] were 30.5 nM and 12900 nM, respectively.

Turning to `Cc1nc(-c2cc(Cl)c(Cl)c3[nH]c4c(c23)CN(C(=O)CO)CC4)no1` [TDI-008937], the values for the concentration for half-maximal inhibition (IC50) in experiment [1] and in experiment [2] were 77.6 nM and 16100 nM, respectively.

With `O=C(CO)N1CCc2[nH]c3c(F)c(Cl)cc(N4CCC(O)C4)c3c2C1` (stereo not drawn) [TDI-008864], the 50% inhibitory concentration (IC50) was 455 nM in experiment [1] and above 10000 nM in experiment [2].

In the case of `O=C(CO)N1CCc2[nH]c3c(Cl)c(Cl)cc(-c4cccnc4)c3c2C1` [TDI-008073], the concentration for half-maximal inhibition (IC50) in experiment [1] worked out at 20.4 nM; in experiment [2] it was 6230 nM.

Regarding `Cn1ccc(-c2cc(Cl)c(F)c3[nH]c4c(c23)CN(C(=O)CO)CC4)n1` [TDI-008246, 1-(7-Chloro-6-fluoro-9-(1-methyl-1H-pyrazol-3-yl)-1,3,4,5-tetrahydro-2H-pyrido[4,3-b]indol-2-yl)-2-hydroxyethan-1-one], the IC50 in experiment [1] was found to be 23 nM; in experiment [2] it was 1700 nM; in experiment [3] (setting [6]), 1090 nM; in experiment [4] (setting [7]), 600 nM; in experiment [5] (freeze-thawed PBMCs, read-out: Freeze-thawed human PBMCs, qRT-PCR IC50), 1160 nM; in experiment [5] (setting [8]) it was 1120 nM.

`O=C(CO)N1CCc2c(c3c(-c4cn[nH]c4)cc(Cl)c(F)c3n2C(F)F)C1` [TDI-008136]: the results for the IC50 in experiment [1] and in experiment [2] were 416 nM and 15900 nM, respectively.

`O=C(CO)N1CCc2c(c3ccc(Br)c(F)c3n2C(F)F)C1` [TDI-008179]: the IC50 in experiment [1] was 506 nM; in experiment [2] it was 34000 nM.

In the case of `O=C(CO)N1CCc2[nH]c3c(F)c(Cl)cc(N4CCC(F)(F)C4)c3c2C1` [TDI-008866], the IC50 in experiment [1] is 452 nM; in experiment [2] it was above 10000 nM.

`COCCn1c2c(c3c(-c4ccn(C)n4)cc(Cl)c(F)c31)CN(C(=O)CO)CC2` [TDI-008292]: the half-maximal inhibitory concentration (IC50) in experiment [1] was 402 nM; in experiment [2], above 40000 nM.

Turning to `O=C(CO)N1CCc2c(c3ccc(Br)c(F)c3n2CC(F)(F)F)C1` [TDI-008130], the figures for the 50% inhibitory concentration (IC50) in experiment [1] and in experiment [2] were 1120 nM and 25800 nM, respectively.

On to `O=C(CO)N1CCc2[nH]c3c(Cl)c(Cl)cc(-c4ccc5nonc5c4)c3c2C1` [TDI-008117], for which the results for the IC50 in experiment [1] and in experiment [2] were 18.2 nM and 6190 nM, respectively.

In the case of `Cc1noc(-c2cc(Cl)c(Cl)c3[nH]c4c(c23)CN(C(=O)CO)CC4)n1` [TDI-008768], the IC50 was 22.6 nM in experiment [1] and 5800 nM in experiment [2].

For the molecule `O=C(CO)N1CCc2[nH]c3c(Cl)c(Cl)cc(-c4cncnc4)c3c2C1` [TDI-008074], the IC50 in experiment [1] came out at 19.4 nM; in experiment [2], 6850 nM.

Source of the values: patent publication US11414422B2, “Substituted pyrido[4,3-b]indoles and azepino[4,5-b]indoles as inhibitors of cGAS” (The Rockefeller University, priority 2018, dated 2022).
